The values that follow come from US20030187003A1, “Pharmaceutical compositions and method for the treatment of retroviral infections” (priority 2000, published 2003).

In one test the test system is SIV (MAC251). The test is described as follows: inhibition of virus-induced cytopathicity in MT-4 cells, SIV (MAC251). Format: cell-based, Simian immunodeficiency virus. The note with it: Simian immunodeficiency virus, MT4, 120 h, read-out: EC50 SIV MAC251. (In general: Damage to the host cells serves as the signal in cytopathic effect assays.)
Test [1] addresses T1, recombinant His-tagged HIV-1 integrase (Human immunodeficiency virus type 1 group M subtype B, UniProt P04585). The test is described as follows: HIV-1 integrase overall integration assay, oligonucleotide-based.
Procedure: Reactions were started by the addition of the enzyme. Inhibitors were incubated shortly with the reaction components before the addition of integrase. Reactions were allowed to proceed at 37° C. for 7 minutes and stopped by the addition of formamide loading buffer (95% formamide, 30 mM ethylenediamine tetraacetic acid, 0.1% xylene cyanol, 0.1% bromophenol blue, 0.1% sodium dilaurylsulfate SDS). In the overall integration assay, this reaction was allowed to proceed for 60 minutes before the addition of a formamide dye.
Test [2] relates to HIV-1 (NDK, NL4.3 and L1), HIV-2 (ROD and EHO) and SIV (MAC251). The test is described as follows: antiviral activity against several HIV and SIV strains. Format: cell-based. As to conditions: range over HIV-1 (NDK, NL4.3 and L1).
Test [3] relates to HIV-1 strains L2, L4 and L6. Briefly: antiviral activity against multi-drug resistant (MddNR) HIV-1 strains. Format: cell-based. The note with it: strains L2, L4 and L6 versus parental strain L1.
Another test relates to HIV-1(IIIB). The test is described as follows: time of addition experiment, viral p24 antigen production. Format: cell-based. As to conditions: MT-4 cells, m.o.i. 0.5, 250 μM, p24 at 31 hours post-infection. The protocol: A time of addition experiment was carried out in order to investigate which step of the replicative cycle was inhibited by compound H. Briefly, this experiment determines how long the addition of an anti-HIV compound can be postponed before losing its antiviral activity in the viral replication cycle. MT-4 cells were infected with HIV-1(IIIB) at a multiplicity of infection (m.o.i.) of 0.5 in order to synchronize all steps of viral replication and the various antiviral test compounds were added at different times (ranging from 0 up to 26 hours) after infection. Viral p24 antigen production was determined 31 hours post-infection (using HIV-1 p24 Core Profile ELISA, Du Pont, Dreieich, Germany) and is expressed as the log10 of the p24 Ag content in pg/ml. Reference compounds with a known mode of action were included in this experiment. Dextran sulfate, a polyanion, interferes with binding of the virus to the cell. The nucleoside analogue AZT inhibits the reverse transcription process. Ritonavir is a proteolytic cleavage inhibitor. […]. Compound H was added at 250 μM. In FIG. 1 showing the results of this experiment, the following symbols were used: (●) for control, (▴) for dextran sulfate (20 μM), (▪) for AZT (1.9 μM), (▪) for ritonavir (2.8 μM) and (*) for compound H (250 μM).

Test [4] addresses T1, recombinant His-tagged HIV-1 integrase. Briefly: HIV-1 integrase strand transfer assay, oligonucleotide-based.
For the next test, the system named is HIV-2 (EHO). The test is described as follows: inhibition of virus-induced cytopathicity in MT-4 cells, HIV-2 (EHO). Format: cell-based. The note with it: Human immunodeficiency virus 2, MT4, 120 h, read-out: EC50 HIV-2 EHO.
Another test relates to HIV-1 L6. Format: cell-based. As to conditions: L6 versus wild type strain L1.

The EC50 is the midpoint of the concentration-response curve. The IC50 is the point on the concentration scale where inhibition reaches its midpoint. For the compound `O=[N+]([O-])c1ccc(C2c3c(O)nc(S)nc3Oc3nc(S)nc(O)c32)cc1` [compound H, 5-(4-nitrophenyl)-2,8-dithiol-4,6-dihydroxy-5H-pyrano[2,3-d:6,5-d′]dipyrimidine], the EC50 with SIV (MAC251) is 5.5 ± 0.9 µM; in test [2], 5.5 to 30 µM; in the test with HIV-2 (EHO), 3.7 ± 0.1 µM. Moreover, the IC50 in test [1] was 300 ± 200 nM; in test [4], 16.1 ± 10.7 µM. Also, the “inhibition of the overall integration reaction” value in test [1] (in words) is “inhibited”. The “reduction in inhibitory potency” value in test [3] is at most 3 fold. Further, the “time the addition can be postponed after virus infection” value in the test on HIV-1(IIIB) is 6 h. For the same compound, the “effect on the DNA strand transfer reaction” value in test [4] (in words) was “strong inhibitory effect”. The “fold increase in EC50” value in the test on HIV-1 L6 stood at 2.8.
